From US20260285850A1, “SUBSTITUTED OXAZOLIDINONES AND IMIDAZOLINONES AS HERBICIDES” (FMC CORPORATION, priority 2023, published 2026)

Columns and labels:
Format in all cases: in vivo
corn (Zea mays) [1] = experiment: Test A postemergence application, visual injury rating 0-100; conditions: 10 days
Method in brief: (§1)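 Loam-sand pots got test material in surfactant-containing solvent, either as a directed soil spray before emergence or on plants at the one- to two-leaf stage. Visual injury (0-100) was read after ten greenhouse days.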

[2] = system: barnyardgrass (Echinochloa crus-galli); experiment: as above; conditions: 10 days
Method in brief: as §1

[3] = system: blackgrass (Alopecurus myosuroides); experiment: as above; conditions: 10 days
Method in brief: as §1

[4] = system: oat, wild (wild oat, Avena fatua); experiment: as above; conditions: 10 days
Method in brief: as §1

[5] = system: ragweed (common ragweed, Ambrosia artemisiifolia); experiment: as above; conditions: 10 days
Method in brief: as §1

[6] = system: wheat (Triticum aestivum); experiment: as above; conditions: 10 days
Method in brief: as §1

[7] = system: horseweed (Erigeron canadensis); experiment: as above; conditions: 10 days
Method in brief: as §1

soybean (Glycine max) [8] = experiment: as above; conditions: 10 days
Method in brief: as §1

[9] = system: ryegrass, Italian (italian ryegrass, Lolium multiflorum); experiment: as above; conditions: 10 days
Method in brief: as §1

[10] = system: green foxtail (Setaria viridis); experiment: as above; conditions: 10 days
Method in brief: as §1

kochia (Bassia scoparia) [11] = experiment: as above; conditions: 10 days
Method in brief: as §1

[12] = system: palmer (palmer amaranth, palmer pigweed, Amaranthus palmeri); experiment: as above; conditions: 10 days
Method in brief: as §1

corn (Zea mays) [13] = experiment: Test A preemergence soil spray, visual injury rating 0-100; conditions: 10 days, 0 = no effect, 100 = complete control
Method in brief: as §1

[14] = system: barnyardgrass (Echinochloa crus-galli); experiment: as above; conditions: 10 days, 0 = no effect, 100 = complete control
Method in brief: as §1

[15] = system: blackgrass (Alopecurus myosuroides); experiment: as above; conditions: 10 days, 0 = no effect, 100 = complete control
Method in brief: as §1

[16] = system: oat, wild (wild oat, Avena fatua); experiment: as above; conditions: 10 days, 0 = no effect, 100 = complete control
Method in brief: as §1

[17] = system: ragweed (common ragweed, Ambrosia artemisiifolia); experiment: as above; conditions: 10 days, 0 = no effect, 100 = complete control
Method in brief: as §1

[18] = system: wheat (Triticum aestivum); experiment: as above; conditions: 10 days, 0 = no effect, 100 = complete control
Method in brief: as §1

soybean (Glycine max) [19] = experiment: as above; conditions: 10 days, 0 = no effect, 100 = complete control
Method in brief: as §1

[20] = system: ryegrass, Italian (italian ryegrass, Lolium multiflorum); experiment: as above; conditions: 10 days, 0 = no effect, 100 = complete control
Method in brief: as §1

[21] = system: green foxtail (Setaria viridis); experiment: as above; conditions: 10 days, 0 = no effect, 100 = complete control
Method in brief: as §1

kochia (Bassia scoparia) [22] = experiment: as above; conditions: 10 days, 0 = no effect, 100 = complete control
Method in brief: as §1

[23] = system: palmer (palmer amaranth, palmer pigweed, Amaranthus palmeri); experiment: as above; conditions: 10 days, 0 = no effect, 100 = complete control
Method in brief: as §1

rice (Oryza sativa) = experiment: Test B flooded paddy test, visual plant response rating 0-100; conditions: 250 g ai/ha, Flood, applied to paddy water, evaluated after 13 days
Method in brief: (§2)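 Paddy-water application: test compounds went directly into water flooded 3 cm above the soil surface, with plants at 2 leaves. After a 13-day greenhouse period, responses were judged by eye relative to controls; a dash marks an untested entry.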

[24] = system: barnyardgrass (Echinochloa crusgalli); experiment: as above; conditions: 250 g ai/ha, Flood, applied to paddy water, evaluated after 13 days
Method in brief: as §2

[25] = system: ducksalad (Heteranthera limosa); experiment: as above; conditions: 250 g ai/ha, Flood, applied to paddy water, evaluated after 13 days
Method in brief: as §2

[26] = system: sedge, umbrella (small-flower umbrella sedge, Cyperus difformis); experiment: as above; conditions: 250 g ai/ha, Flood, applied to paddy water, evaluated after 13 days
Method in brief: as §2

[27] = 31 g ai/ha, postemergence, 0 = no effect, 100 = complete control
[28] = Postemergence, 125 g ai/ha, 0 is no effect, 100 is complete control

In the case of `COC(=O)C1CCC(NC(=O)C2(C)CN(c3cc(F)cc(F)c3)C(=O)O2)C1` (centres unmarked) [Compounds 10], the “Corn plant response rating (0-100)” value (corn (Zea mays) [1]; [27]) is reported as 40, the “Corn plant response rating (0 to 100 scale)” value (corn (Zea mays) [1]; [28]) is reported as 100 and the “Barnyardgrass plant response rating (0-100)” value [2, 27] is reported as 60. The “Barnyardgrass plant response rating (0 to 100 scale)” value [2, 28] was 100, the “Blackgrass plant response rating (0-100)” value [3, 27] was 50 and the “Blackgrass plant response rating (0 to 100 scale)” value [3, 28] was 90. The “Oat, Wild plant response rating (0-100)” value [4, 27] was 90, the “Oat, Wild plant response rating (0 to 100 scale)” value [4, 28] was 90 and the “Ragweed plant response rating (0-100)” value [5, 27] was 0. The “Ragweed plant response rating (0 to 100 scale)” value [5, 28] was 0, the “Wheat plant response rating (0-100)” value [6, 27] was 80 and the “Wheat plant response rating (0 to 100 scale)” value [6, 28] was 90. The “Horseweed plant response rating (0-100)” value [7, 27] was 30, the “Horseweed plant response rating (0 to 100 scale)” value [7, 28] was 40 and the “Soybean plant response rating (0-100)” value (soybean (Glycine max) [8]; [27]) was 50. The “Soybean plant response rating (0 to 100 scale)” value (soybean (Glycine max) [8]; [28]) was 70, the “Ryegrass, Italian plant response rating (0-100)” value [9, 27] was 60 and the “Ryegrass, Italian plant response rating (0 to 100 scale)” value [9, 28] was 80. The “Foxtail, Green plant response rating (0-100)” value [10, 27] was 20, the “Foxtail, Green plant response rating (0 to 100 scale)” value [10, 28] was 90 and the “Kochia plant response rating (0-100)” value (kochia (Bassia scoparia) [11]; [27]) was 20. The “Kochia plant response rating (0 to 100 scale)” value (kochia (Bassia scoparia) [11]; [28]) was 70, the “Amaranth, Palmer plant response rating (0-100)” value [12, 27] was 10 and the “Amaranth, Palmer / Pigweed, Palmer plant response rating (0 to 100 scale)” value [12, 28] was 80. The “Corn plant response rating (0-100)” value (corn (Zea mays) [13]; 31 g ai/ha) was 0, the “Corn plant response rating (0 to 100 scale)” value (corn (Zea mays) [13]; 125 g ai/ha) was 70 and the “Barnyardgrass plant response rating (0-100)” value ([14]; 31 g ai/ha) was 10. The “Barnyardgrass plant response rating (0 to 100 scale)” value ([14]; 125 g ai/ha) was 90, the “Blackgrass plant response rating (0-100)” value ([15]; 31 g ai/ha) was 30 and the “Blackgrass plant response rating (0 to 100 scale)” value ([15]; 125 g ai/ha) was 90. For the same compound, the “Oat, Wild plant response rating (0-100)” value ([16]; 31 g ai/ha) was 50, the “Oat, Wild plant response rating (0 to 100 scale)” value ([16]; 125 g ai/ha) was 80 and the “Ragweed plant response rating (0-100)” value ([17]; 31 g ai/ha) was 0. For the same compound, the “Ragweed plant response rating (0 to 100 scale)” value ([17]; 125 g ai/ha) was 0, the “Wheat plant response rating (0-100)” value ([18]; 31 g ai/ha) was 90 and the “Wheat plant response rating (0 to 100 scale)” value ([18]; 125 g ai/ha) was 90. The “Soybean plant response rating (0-100)” value (soybean (Glycine max) [19]; 31 g ai/ha) was 10, the “Soybean plant response rating (0 to 100 scale)” value (soybean (Glycine max) [19]; 125 g ai/ha) was 50 and the “Ryegrass, Italian plant response rating (0-100)” value ([20]; 31 g ai/ha) was 10. The “Ryegrass, Italian plant response rating (0 to 100 scale)” value ([20]; 125 g ai/ha) was 90, the “Foxtail, Green plant response rating (0-100)” value ([21]; 31 g ai/ha) was 0 and the “Foxtail, Green plant response rating (0 to 100 scale)” value ([21]; 125 g ai/ha) was 90. For the same compound, the “Kochia plant response rating (0-100)” value (kochia (Bassia scoparia) [22]; 31 g ai/ha) was 20, the “Kochia plant response rating (0 to 100 scale)” value (kochia (Bassia scoparia) [22]; 125 g ai/ha) was 90 and the “Amaranth, Palmer plant response rating (0-100)” value ([23]; 31 g ai/ha) was 0. For the same compound, the “Amaranth, Palmer plant response rating (0 to 100 scale)” value ([23]; 125 g ai/ha) was 40, the “Plant response rating, Rice (0 to 100 scale, 0 is no effect and 100 is complete control)” value (rice (Oryza sativa)) was 10 and the “Plant response rating, Barnyardgrass (0 to 100 scale, 0 is no effect and 100 is complete control)” value [24] was 50. The “Plant response rating, Ducksalad (0 to 100 scale, 0 is no effect and 100 is complete control)” value [25] was 100 and the “Plant response rating, Sedge, Umbrella (0 to 100 scale, 0 is no effect and 100 is complete control)” value [26] was 100.
